We go through 13 molecules from ChEMBL document CHEMBL3871282, “Neo-tanshinlactone D-ring modified novel analogues induce apoptosis in human breast cancer cell via DNA damage” (Bioorg Med Chem, 2017).

A short description of data set [1]: Cytotoxicity against human SKBR3 ER negative, PR negative,HER2 positive cells assessed as cell growth inhibition after 24 hrs by MTT assay. The class given is functional, cell-based. As to conditions: SK-BR-3, 24 h. A general note: Tetrazolium assays rely on reduction of a dye to a coloured formazan, in cell work by metabolically active cells.
Data set [2] in a line: Cytotoxicity against human MDA-MB-231 ER negative, PR negative,HER2 negative cells assessed as cell growth inhibition after 24 hrs by MTT assay. The class given is functional, cell-based. The settings on record: MDA-MB-231, 24 h.
Data set [3] can be described thus: Cytotoxicity against human HeLa cells assessed as cell growth inhibition after 24 hrs by MTT assay. The data set is classed as functional, cell-based.
Data set [4] can be described thus: Cytotoxicity against human HepG2 cells assessed as cell growth inhibition after 24 hrs by MTT assay. The data set is classed as functional, cell-based. The settings on record: HepG2, 24 h.
The nature of data set [5]: Cytotoxicity against human MCF7 ER positive, PR positive/negative,HER2 negative cells assessed as cell growth inhibition after 24 hrs by MTT assay. The class given is functional, cell-based. The settings on record: MCF7, 24 h.
Data set [6] can be described thus: Cytotoxicity against human HCT116 cells assessed as cell growth inhibition after 24 hrs by MTT assay. The data set is classed as functional, cell-based. As to conditions: HCT-116, 24 h.
Data set [7] is described as follows: Cytotoxicity against human WI38 cells assessed as cell growth inhibition after 24 hrs by MTT assay. The class given is toxicity, cell-based, WI-38.
Data set [8] is described as follows: Cytotoxicity against human HaCaT cells assessed as cell growth inhibition after 24 hrs by MTT assay. The class given is toxicity, cell-based.
The nature of data set [9]: Cytotoxicity against human breast cancer cells assessed as cell growth inhibition after 3 days by SRB assay. The class given is functional, Cancer cell lines. (In general: The SRB assay estimates cell density from bound dye.)

Usually IC50 stands for the concentration that inhibits the measured activity by half. On to `O=C(Oc1cc(=O)[nH]c2c1ccc1ccccc12)c1ccccc1`, for which the 50% inhibitory concentration (IC50) in data set [1] was determined as 42.6 µM; in data set [2], 49.3 µM; in [3], 81 µM; in [4] it was 83.1 µM; in [5] it was 30.6 µM; in data set [6], 64 µM.

With `O=c1cc(OS(=O)(=O)c2ccc(C(F)(F)F)cc2)c2ccc3ccccc3c2[nH]1`, the IC50 in data set [1] is 131 µM; in data set [2], 139 µM; in data set [3] it was above 200 µM; in [4], above 200 µM; in data set [5], 120 µM; in data set [6] it was 150 µM.

With `CC(C)CC(=O)Oc1cc(=O)[nH]c2c1ccc1ccccc12`, the IC50 amounted to 39.8 µM in [1]; 57.4 µM in [2]; 45.4 µM in [3]; 73.1 µM in data set [4]; 11.9 µM in data set [5]; 27.6 µM in data set [6].

On to `O=C(Oc1cc(=O)[nH]c2c1ccc1ccccc12)c1ccc(F)cc1F`, for which the concentration for half-maximal inhibition (IC50) was determined as 67.1 µM in data set [1]; 70.2 µM in data set [2]; 68.9 µM in data set [3]; 67.5 µM in data set [4]; 63.4 µM in data set [5]; 92.8 µM in [6].

As for `COc1ccc(COc2cc(=O)[nH]c3c2ccc2ccccc23)cc1`, the IC50 in data set [1] is 0.166 µM; in data set [2], 0.178 µM; in data set [3] it was 42.7 µM; in [4], 42.2 µM; in data set [5], 0.0487 µM; in data set [6], 0.0752 µM. Moreover, the IC50 at 24 h in data set [7] and in [8] was above 100 µM each time.

For the molecule `O=c1cc(OS(=O)(=O)c2ccc(F)cc2)c2ccc3ccccc3c2[nH]1`, the IC50 in data set [1] was 144 µM; in data set [2], 157 µM; in data set [3], above 200 µM; in data set [4], above 200 µM; in data set [5] it was 132 µM; in data set [6] it was 168 µM.

As to `O=C(Oc1cc(=O)[nH]c2c1ccc1ccccc12)c1ccc([N+](=O)[O-])cc1`, the IC50 in data set [1] worked out at 56.4 µM; in data set [2], 69.4 µM; in data set [3] it was 85.3 µM; in [4], 103 µM; in data set [5] it was 45.9 µM; in data set [6] it was 84.1 µM.

`O=c1cc(OCc2nc3ccccc3[nH]2)c2ccc3ccccc3c2[nH]1`: the IC50 in data set [1] is 0.103 µM; in [2], 0.117 µM; in data set [3], 34.9 µM; in [4], 44.2 µM; in [5], 0.0383 µM; in [6], 0.0672 µM. The IC50 at 24 h in [7] and in [8] was above 100 µM each time.

On to `CCCC(=O)Oc1cc(=O)[nH]c2c1ccc1ccccc12`, for which the IC50 in data set [1] was 31.1 µM; in [2], 38.2 µM; in data set [3] it was 62 µM; in data set [4], 35.2 µM; in data set [5] it was 11.3 µM; in data set [6] it was 23.3 µM.

Take `O=C(/C=C/c1ccc([N+](=O)[O-])cc1)Oc1cc(=O)[nH]c2c1ccc1ccccc12`: the IC50 amounted to 38.4 µM in [1]; 43.9 µM in [2]; 90 µM in data set [3]; 99.1 µM in data set [4]; 37.9 µM in data set [5]; 76.1 µM in data set [6].

Take `CCC(=O)Oc1cc(=O)[nH]c2c1ccc1ccccc12`: the IC50 in data set [1] was found to be 30.6 µM; in data set [2], 34.5 µM; in [3], 59.2 µM; in data set [4], 55.1 µM; in [5], 20.9 µM; in data set [6] it was 52 µM.

As to `O=c1cc(OCc2ccc([N+](=O)[O-])cc2)c2ccc3ccccc3c2[nH]1`, the IC50 in data set [1] was determined as 0.153 µM; in data set [2], 0.181 µM; in [3], 39.7 µM; in data set [4], 41.3 µM; in data set [5] it was 0.0665 µM; in data set [6], 0.0881 µM. Besides, the IC50 at 24 h in data set [7] and in [8] was above 100 µM each time.

`Cc1cccc2c1ccc1c3occ(C)c3c(=O)oc21`: in data set [9], the GI came to 9.65 µM.
